Measured values reported in US11427558B1, “Indazoles and azaindazoles as LRRK2 inhibitors” (ESCAPE Bio, Inc., priority 2019, dated 2022).
pIC50: −log10 of the molar value.

Legend:
[1] = target: Recombinant wild type LRRK2 protein (Homo sapiens (Human), UniProt Q5S007); experiment: LRRK2 kinase activity, LanthaScreen TR-FRET assay (wild type); type: biochemical; conditions: LRRKtide 400 nM, 25 μM ATP, 60 min; read-out: LRRK2 WT IC50
Method in brief: (§1)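 Recombinant human wild-type or G2019S LRRK2 phosphorylated fluorescein-labelled LRRKtide (ERM-based) with ATP and serially diluted compound for 60 min at room temperature.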

[2] = target: Recombinant G2019S-LRRK2 protein (Homo sapiens (Human), UniProt Q5S007, G2019S); experiment: LRRK2 kinase activity, LanthaScreen TR-FRET assay (G2019S); type: biochemical; conditions: LRRKtide 400 nM, 25 μM ATP, 60 min
Recombinant G2019S-LRRK2 protein, sequence (Q5S007 whole entry G2019S): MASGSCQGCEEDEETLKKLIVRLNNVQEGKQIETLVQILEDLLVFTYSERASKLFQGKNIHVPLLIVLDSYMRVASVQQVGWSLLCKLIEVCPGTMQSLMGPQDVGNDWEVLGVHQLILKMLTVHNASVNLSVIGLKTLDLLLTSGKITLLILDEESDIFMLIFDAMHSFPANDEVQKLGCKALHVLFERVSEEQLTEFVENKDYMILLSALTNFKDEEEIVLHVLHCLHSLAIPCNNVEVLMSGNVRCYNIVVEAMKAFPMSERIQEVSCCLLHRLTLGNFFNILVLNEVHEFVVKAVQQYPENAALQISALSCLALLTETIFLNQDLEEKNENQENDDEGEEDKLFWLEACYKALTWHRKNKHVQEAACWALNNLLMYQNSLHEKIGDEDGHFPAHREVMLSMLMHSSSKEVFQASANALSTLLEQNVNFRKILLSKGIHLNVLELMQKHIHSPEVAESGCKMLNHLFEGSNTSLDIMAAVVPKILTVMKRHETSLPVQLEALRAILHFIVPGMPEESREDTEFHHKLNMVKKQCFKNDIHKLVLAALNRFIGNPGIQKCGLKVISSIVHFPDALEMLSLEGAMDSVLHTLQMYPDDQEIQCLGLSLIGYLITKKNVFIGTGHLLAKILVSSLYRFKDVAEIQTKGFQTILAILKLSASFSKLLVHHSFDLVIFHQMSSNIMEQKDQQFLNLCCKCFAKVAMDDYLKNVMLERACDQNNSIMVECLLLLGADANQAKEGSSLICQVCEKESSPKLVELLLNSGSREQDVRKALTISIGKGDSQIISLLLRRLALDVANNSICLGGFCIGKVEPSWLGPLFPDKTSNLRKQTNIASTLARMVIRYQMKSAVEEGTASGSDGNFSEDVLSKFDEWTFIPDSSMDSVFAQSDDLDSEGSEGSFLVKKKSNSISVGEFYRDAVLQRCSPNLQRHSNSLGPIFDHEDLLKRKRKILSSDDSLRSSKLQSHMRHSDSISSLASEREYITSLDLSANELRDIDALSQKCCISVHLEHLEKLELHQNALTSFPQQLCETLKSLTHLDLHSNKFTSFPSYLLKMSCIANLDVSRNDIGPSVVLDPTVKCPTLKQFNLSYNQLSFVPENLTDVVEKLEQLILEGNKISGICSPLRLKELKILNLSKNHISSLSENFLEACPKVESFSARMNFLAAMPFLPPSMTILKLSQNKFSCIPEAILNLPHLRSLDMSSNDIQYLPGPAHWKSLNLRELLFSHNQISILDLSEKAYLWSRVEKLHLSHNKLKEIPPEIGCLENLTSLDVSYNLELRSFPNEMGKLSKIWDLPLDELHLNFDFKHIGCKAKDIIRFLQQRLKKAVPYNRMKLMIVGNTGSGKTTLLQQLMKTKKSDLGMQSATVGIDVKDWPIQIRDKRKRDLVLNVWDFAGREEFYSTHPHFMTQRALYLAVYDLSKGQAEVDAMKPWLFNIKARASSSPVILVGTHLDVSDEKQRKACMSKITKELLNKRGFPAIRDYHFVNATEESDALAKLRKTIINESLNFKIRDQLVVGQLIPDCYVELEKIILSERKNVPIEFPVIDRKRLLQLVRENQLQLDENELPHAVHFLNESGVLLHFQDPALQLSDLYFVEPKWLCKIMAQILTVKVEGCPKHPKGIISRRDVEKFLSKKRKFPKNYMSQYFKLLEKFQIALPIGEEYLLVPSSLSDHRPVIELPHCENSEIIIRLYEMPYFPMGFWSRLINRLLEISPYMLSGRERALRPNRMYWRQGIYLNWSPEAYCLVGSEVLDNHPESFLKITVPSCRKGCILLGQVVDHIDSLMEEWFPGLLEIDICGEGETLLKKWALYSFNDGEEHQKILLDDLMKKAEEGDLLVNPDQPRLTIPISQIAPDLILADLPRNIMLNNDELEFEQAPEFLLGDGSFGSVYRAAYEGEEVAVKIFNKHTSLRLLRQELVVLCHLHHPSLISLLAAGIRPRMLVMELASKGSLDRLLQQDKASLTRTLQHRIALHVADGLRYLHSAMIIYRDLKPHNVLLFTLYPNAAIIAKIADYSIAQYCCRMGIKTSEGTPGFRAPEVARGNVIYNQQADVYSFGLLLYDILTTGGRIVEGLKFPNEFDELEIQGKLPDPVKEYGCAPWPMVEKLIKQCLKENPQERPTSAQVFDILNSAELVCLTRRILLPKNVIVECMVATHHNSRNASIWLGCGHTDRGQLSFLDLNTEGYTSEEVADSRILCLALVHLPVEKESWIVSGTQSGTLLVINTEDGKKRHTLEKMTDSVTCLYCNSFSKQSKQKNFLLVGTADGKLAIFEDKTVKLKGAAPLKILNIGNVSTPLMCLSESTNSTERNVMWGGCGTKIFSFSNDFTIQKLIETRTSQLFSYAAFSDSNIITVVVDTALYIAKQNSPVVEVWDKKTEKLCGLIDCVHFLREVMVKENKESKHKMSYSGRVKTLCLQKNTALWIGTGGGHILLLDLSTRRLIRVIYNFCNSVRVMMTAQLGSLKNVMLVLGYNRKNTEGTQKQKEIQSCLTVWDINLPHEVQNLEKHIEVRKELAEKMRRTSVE
Method in brief: as §1

Recombinant wild type LRRK2 protein, sequence (Q5S007 whole entry): as the sequence (Q5S007 whole entry G2019S) above, with S2019G counted along it

SMILES | pIC50 [1] | pIC50 [2]
Cc1cc(C#N)cnc1C(=O)Nc1ccc2[nH]nc(-c3ccnc(Br)c3)c2c1 [Example 103, N-(3-(2-Bromopyridin-4-yl)-1H-indazol-5-yl)-5-cyano-3-methylpicolinamide] | > 7.00 | > 7.00
Cc1c(C(=O)Nc2ccc3[nH]nc(-c4ccccc4)c3c2)nc(C#N)n1C [Example 104, 2-Cyano-1,5-dimethyl-N-(3-phenyl-1H-indazol-5-yl)-1H-imidazole-4-carboxamide] | 6.00 to 7.00 | 6.00 to 7.00
Cc1cc(C#N)cnc1C(=O)Nc1ccc2[nH]nc(Br)c2c1 [Example 106, N-(3-Bromo-1H-indazol-5-yl)-5-cyano-3-methylpicolinamide] | 5.00 to 6.00 | > 7.00
N#Cc1ccc(C(=O)Nc2ccc3[nH]nc(-c4ccoc4)c3c2)c(O)c1 [Example 107, 4-Cyano-N-(3-(furan-3-yl)-1H-indazol-5-yl)-2-hydroxybenzamide] | 6.00 to 7.00 | 6.00 to 7.00
Cc1cc(C#N)cnc1C(=O)Nc1ccc2[nH]nc(-c3ccc(C(=O)N4CCOCC4)cc3)c2c1 [Example 108, 5-Cyano-3-methyl-N-(3-(4-(morpholine-4-carbonyl)phenyl)-1H-indazol-5-yl)picolinamide] | 6.00 to 7.00 | > 7.00
Cc1cc(C#N)cnc1C(=O)Nc1ccc2[nH]nc(-c3cncc(OC(C)C)c3)c2c1 [Example 109, 5-Cyano-N-(3-(5-isopropoxypyridin-3-yl)-1H-indazol-5-yl)-3-methylpicolinamide] | 6.00 to 7.00 | > 7.00
Cc1cc(C#N)cnc1C(=O)Nc1ccc2[nH]nc(-c3cncs3)c2c1 [Example 110, 5-Cyano-3-methyl-N-(3-(thiazol-5-yl)-1H-indazol-5-yl)picolinamide] | 6.00 to 7.00 | > 7.00
Cc1cc(C#N)cnc1C(=O)Nc1ccc2[nH]nc(-c3cnco3)c2c1 [Example 111, 5-Cyano-3-methyl-N-(3-(oxazol-5-yl)-1H-indazol-5-yl)picolinamide] | 6.00 to 7.00 | > 7.00
Cc1cccc(-c2n[nH]c3ccc(NC(=O)c4ncc(C#N)cc4C)cc23)n1 [Example 112, 5-Cyano-3-methyl-N-(3-(6-methylpyridin-2-yl)-1H-indazol-5-yl)picolinamide] | 6.00 to 7.00 | 6.00 to 7.00
Cc1cc(C#N)cnc1C(=O)Nc1ccc2[nH]nc(-c3ccnc(C#N)c3)c2c1 [Example 113, 5-Cyano-N-(3-(2-cyanopyridin-4-yl)-1H-indazol-5-yl)-3-methylpicolinamide] | 6.00 to 7.00 | > 7.00
Cc1cc(C#N)cnc1C(=O)Nc1ccc2[nH]nc(-c3ccccn3)c2c1 [Example 114, 5-Cyano-3-methyl-N-(3-(pyridin-2-yl)-1H-indazol-5-yl)picolinamide] | 5.00 to 6.00 | 6.00 to 7.00
Cc1cc(C#N)cnc1C(=O)Nc1ccc2[nH]nc(-c3ccnc(N4C[C@H](C)O[C@@H](C)C4)c3)c2c1 [Example 115, 5-Cyano-N-(3-(2-((2S,6S)-2,6-dimethylmorpholino)pyridin-4-yl)-1H-indazol-5-yl)-3-methylpicolinamide] | > 7.00 | > 7.00
N#Cc1cnc(C(=O)Nc2ccc3[nH]nc(-c4ccoc4)c3c2)c2sccc12 [Example 116, 4-Cyano-N-(3-(furan-3-yl)-1H-indazol-5-yl)thieno[2,3-c]pyridine-7-carboxamide] | 5.00 to 6.00 | 6.00 to 7.00
Cc1cc(C#N)cnc1C(=O)Nc1ccc2[nH]nc(-c3ccnc(N4C[C@H](C)C[C@H](C)C4)c3)c2c1 [Example 117, 5-Cyano-N-(3-(2-((3R,5S)-3,5-dimethylpiperidin-1-yl)pyridin-4-yl)-1H-indazol-5-yl)-3-methylpicolinamide] | 6.00 to 7.00 | > 7.00
Cc1cc(C#N)cnc1C(=O)Nc1ccc2[nH]nc(-c3ccnc(N4C[C@@H](C)O[C@@H](C)C4)c3)c2c1 [Example 118, 5-Cyano-N-(3-(2-((2S,6R)-2,6-dimethylmorpholino)pyridin-4-yl)-1H-indazol-5-yl)-3-methylpicolinamide] | > 7.00 | > 7.00
Cc1cc(C#N)cnc1C(=O)Nc1ccc2[nH]nc(-c3cccc(N4C[C@@H](C)O[C@@H](C)C4)c3)c2c1 [Example 119, 5-Cyano-N-(3-(3-((2S,6R)-2,6-dimethylmorpholino)phenyl)-1H-indazol-5-yl)-3-methylpicolinamide] | 6.00 to 7.00 | > 7.00
N#Cc1ccc(F)c(C(=O)Nc2ccc3[nH]nc(-c4ccoc4)c3c2)c1F [Example 120, 3-Cyano-2,6-difluoro-N-(3-(furan-3-yl)-1H-indazol-5-yl)benzamide] | > 7.00 | > 7.00
Cc1cc(C#N)cnc1C(=O)Nc1ccc2[nH]nc(-c3cncc(Cl)c3)c2c1 [Example 121, N-(3-(5-Chloropyridin-3-yl)-1H-indazol-5-yl)-5-cyano-3-methylpicolinamide] | 6.00 to 7.00 | > 7.00
N#Cc1ccc(F)c(C(=O)Nc2ccc3[nH]nc(-c4ccoc4)c3c2)c1 [Example 122, 5-Cyano-2-fluoro-N-(3-(furan-3-yl)-1H-indazol-5-yl)benzamide] | > 7.00 | > 7.00

SMILES | pIC50 [1] | pIC50 [2]
Cc1cc(C#N)cnc1C(=O)Nc1ccc2[nH]nc(-c3cnn(C)c3C)c2c1 [Example 123, 5-Cyano-N-(3-(1,5-dimethyl-1H-pyrazol-4-yl)-1H-indazol-5-yl)-3-methylpicolinamide] | 6.00 to 7.00 | > 7.00
Cn1cc(C#N)nc1C(=O)Nc1ccc2[nH]nc(-c3ccoc3)c2c1 [Example 124, 4-Cyano-N-(3-(furan-3-yl)-1H-indazol-5-yl)-1-methyl-1H-imidazole-2-carboxamide] | > 7.00 | > 7.00
N#Cc1ccc(O)c(C(=O)Nc2ccc3[nH]nc(-c4ccoc4)c3c2)c1 [Example 125, 5-Cyano-N-(3-(furan-3-yl)-1H-indazol-5-yl)-2-hydroxybenzamide] | 6.00 to 7.00 | 6.00 to 7.00
Cc1cc(C#N)cnc1C(=O)Nc1ccc2[nH]nc(-n3ccnc3)c2c1 [Example 126, N-(3-(1H-Imidazol-1-yl)-1H-indazol-5-yl)-5-cyano-3-methylpicolinamide] | 6.00 to 7.00 | > 7.00
N#Cc1cccc(C(=O)Nc2ccc3[nH]nc(-c4ccoc4)c3c2)n1 [Example 127, 6-Cyano-N-(3-(furan-3-yl)-1H-indazol-5-yl)picolinamide] | > 7.00 | > 7.00
Cc1ccc(C#N)c(F)c1C(=O)Nc1ccc2[nH]nc(-c3ccoc3)c2c1 [Example 128, 3-Cyano-2-fluoro-N-(3-(furan-3-yl)-1H-indazol-5-yl)-6-methylbenzamide] | > 7.00 | > 7.00
Cc1ncc(-c2n[nH]c3ccc(NC(=O)c4ncc(C#N)cc4C)cc23)o1 [Example 129, 5-Cyano-3-methyl-N-(3-(2-methyloxazol-5-yl)-1H-indazol-5-yl)picolinamide] | > 7.00 | > 7.00
Cc1cc(C#N)cnc1C(=O)Nc1ccc2[nH]nc(-c3cc(C#N)cs3)c2c1 [Example 130, 5-Cyano-N-(3-(4-cyanothiophen-2-yl)-1H-indazol-5-yl)-3-methylpicolinamide] | > 7.00 | > 7.00
Cc1cc(C#N)cnc1C(=O)Nc1ccc2[nH]nc(-c3ccc(C#N)s3)c2c1 [Example 131, 5-Cyano-N-(3-(5-cyanothiophen-2-yl)-1H-indazol-5-yl)-3-methylpicolinamide] | 6.00 to 7.00 | > 7.00
N#Cc1ccnc(C(=O)Nc2ccc3[nH]nc(-c4ccoc4)c3c2)n1 [Example 132, 4-Cyano-N-(3-(furan-3-yl)-1H-indazol-5-yl)pyrimidine-2-carboxamide] | > 7.00 | > 7.00
Cc1c(C(=O)Nc2ccc3[nH]nc(-c4ccoc4)c3c2)n[nH]c1C#N [Example 133, 5-Cyano-N-(3-(furan-3-yl)-1H-indazol-5-yl)-4-methyl-1H-pyrazole-3-carboxamide] | 6.00 to 7.00 | > 7.00
Cc1c(C#N)ccc(F)c1C(=O)Nc1ccc2[nH]nc(-c3ccoc3)c2c1 [Example 134, 3-Cyano-6-fluoro-N-(3-(furan-3-yl)-1H-indazol-5-yl)-2-methylbenzamide] | > 7.00 | > 7.00
Cc1cc(C#N)cnc1C(=O)Nc1ccc2[nH]nc(NC(=O)c3ccccc3)c2c1 [Example 135, N-(3-Benzamido-1H-indazol-5-yl)-5-cyano-3-methylpicolinamide] | 5.00 to 6.00 | 6.00 to 7.00
Cc1cc(C#N)cnc1C(=O)Nc1ccc2[nH]nc(-n3cccn3)c2c1 [Example 136, N-(3-(1H-Pyrazol-1-yl)-1H-indazol-5-yl)-5-cyano-3-methylpicolinamide] | 5.00 to 6.00 | 6.00 to 7.00
Cc1n[nH]c(C#N)c1C(=O)Nc1ccc2[nH]nc(-c3ccoc3)c2c1 [Example 137, 5-Cyano-N-(3-(furan-3-yl)-1H-indazol-5-yl)-3-methyl-1H-pyrazole-4-carboxamide] | > 7.00 | > 7.00
N#Cc1cnc(C(=O)Nc2ccc3[nH]nc(-c4ccoc4)c3c2)c(Br)c1 [Example 138, 3-Bromo-5-cyano-N-(3-(furan-3-yl)-1H-indazol-5-yl)picolinamide] | > 7.00 | > 7.00
Cc1cc(C#N)cnc1C(=O)Nc1ccc2[nH]nc(-c3ccc(Cl)s3)c2c1 [Example 139, N-(3-(5-Chlorothiophen-2-yl)-1H-indazol-5-yl)-5-cyano-3-methylpicolinamide] | 5.00 to 6.00 | > 7.00
Cc1ncc(-c2n[nH]c3ccc(NC(=O)c4ncc(C#N)cc4C)cc23)s1 [Example 140, 5-Cyano-3-methyl-N-(3-(2-methylthiazol-5-yl)-1H-indazol-5-yl)picolinamide] | > 7.00 | > 7.00
Cc1ccc(-c2n[nH]c3ccc(NC(=O)c4ncc(C#N)cc4C)cc23)o1 [Example 141, 5-Cyano-3-methyl-N-(3-(5-methylfuran-2-yl)-1H-indazol-5-yl)picolinamide] | > 7.00 | > 7.00
